# Reference: patent US20250333393A1, “HETEROCYCLIC COMPOUND AS TYK2 INHIBITOR, AND SYNTHESIS AND USE THEREOF” (ZHEJIANG WENDA PHARMACEUTICAL TECHNOLOGY CO., LTD., priority 2023, published 2025)
# Like-named read-outs stand apart in the source and are kept apart here.
# What was measured:
# JAK3 (JH1) = JAK3 (JH1) (Homo sapiens (Human), UniProt P52333); assay: JAK family kinase experiment, JAK3 (JH1); assay type: biochemical
# Procedure: (§1) 1.2.1. The compound was dissolved with DMSO to a storage concentration of 10 mM.
# (§2) 1.2.2. A compound concentration of 100 times the final concentration was prepared in a compound dilution plate, which was diluted from the highest concentration point with a total of 4 concentration points using the 27 times dilution method, and transferred to the Echo plate.
# (§3) 1.2.3. The compound was flushed from the Echo plate to the 384 experimental plate using an Echo instrument, and the compound become 11 concentration points of the 3-fold dilution matrix.
# (§4) 1.2.4. 2× kinase working solution was prepared, which was added to a 384-well experimental plate at 5 μl per well. The compound and the kinase were incubated at room temperature for 15 minutes.
# (§5) 1.2.5. 5 ul of 2× substrate (containing ATP) was added to the 384 well plate.
# (§6) 1.2.6. Incubation was conducted at room temperature for 45 minutes.
# (§7) 1.2.7. The detection reagent mixture was added to the 384-well plate, and centrifuged for 30 seconds, and incubation was conducted at room temperature for 60 minutes.
# (§8) 1.2.8. The signal values were read using Envision Microplate Reader (PerkinElmer).
# (§9) 1.3.1. XL-Fit software was used for data analysis to obtain IC50 of the compounds, Table 2.
# TYK2(JH2) = TYK2(JH2) (Homo sapiens (Human), UniProt P29597); assay: Pseudo kinase experiment, TYK2 (JH2), tracer/Tb; assay type: binding
# Procedure: (§10) 1.1.1. The compound was dissolved with DMSO to a storage concentration of 10 mM.
# (§11) 1.1.2. A compound concentration of 200 times the final concentration was prepared in a compound dilution plate, which was diluted from the highest concentration point with a total of 4 concentration points using the 27 times dilution method, and transferred to the Echo plate.
# (§12) 1.1.3. The compound was flushed from the Echo plate to the 384-well experimental plate using an Echo instrument, and the compound become 11 concentration points of the 3-fold dilution matrix.
# (§13) 1.1.4. 5 μl of 3×TYK2(JH2) or JAK1(JH2) kinase was added to the 384-well experimental plate.
# (§14) 1.1.5. 5 μl of 3×Tb was added to the 384-well experimental plate.
# (§15) 1.1.6.5 μl of 3× Tracer was added to the 384-well experimental plate.
# (§16) 1.1.7. Centrifugation was conducted for 30 seconds and incubation was carried out at room temperature for 60 minutes.
# (§17) 1.1.8. The signal values were read using Envision Microplate Reader (PerkinElmer).
# as §9
# TYK2 (JH1) = TYK2 (JH1) (Homo sapiens (Human), UniProt P29597); assay: JAK family kinase experiment, TYK2 (JH1); assay type: biochemical
# Procedure: as §1, §2, §3, §4, §5, §6, §7, §8, §9
# [1] = Drug concentrations in plasma samples and brain tissue samples after oral administration, LC-MS/MS; assay type: in vivo, female C57BL/6 mice; settings: female, C57BL/6, mouse, 15 consecutive days, 2Hr after the last dose, mice; for Kp at 2 h: brain/plasma, read-out: Ratio (brain tissue to plasma concentration)
# Procedure: The purpose of the study was to evaluate drug concentrations in plasma samples and brain tissue samples of female C57BL/6 mice after 15 consecutive days of oral administration of 10 mg/kg, 30 mg/kg, and 90 mg/kg of Compound 4S. The drug concentrations of Compound 4S in plasma samples and brain tissue homogenate samples were detected by the positive ion (ESI) multi-reactive ion monitoring (MRM) scanning mode of LC-MS instrument with a linear range of 1-10000 ng/mL.
# Plasma samples from 10 mice orally administered with Compound 4S: For standard curves, QC samples, single blanks, and unknown samples, the sample volume was 10 μL and each was added with 200 μL of methanol: acetonitrile=1:1 (v/v) precipitant (containing 5 ng/mL of Terfenadine). For double-blank samples, each was added with 200 μL of Methanol: Acetonitrile=1:1 (v/v) precipitant. The samples were vortexed for 1 min and centrifuged for 15 min (4000 rpm, 4° C.) to obtain the supernatant solution, which was diluted by 10-fold using methanol: water=1:1 (v/v, containing 0.1% FA) as the diluent solution and then subjected to LC-MS/MS analysis.
# Brain tissue homogenate samples from 10 mice orally administered with Compound 4S: For standard curves, QC samples, single blanks, and unknown samples, the sample volume was 50 μL and each was added with 200 μL of methanol: acetonitrile=1:1 (v/v) precipitant (containing 5 ng/mL of Terfenadine). For double-blank samples, a 50 μL sample of blank brain tissue homogenate was taken and added with 200 μL of methanol/acetonitrile (1:1, v/v) precipitant. The samples were vortexed for 1 min and centrifuged for 15 min (4000 rpm, 4° C.) to obtain the supernatant solution, which was diluted by 10-fold using methanol: water=1:1 (v/v, containing 0.1% FA) as the diluent solution and then subjected to LC-MS/MS analysis. Drug exposures in plasma samples and brain tissue samples at different administered doses and at different frequencies of administration of the same administered dose were compared (Table 3).
# JAK1 (JH1) = JAK1 (JH1) (Homo sapiens (Human), UniProt P23458); assay: JAK family kinase experiment, JAK1 (JH1); assay type: biochemical
# Procedure: as §1, §2, §3, §4, §5, §6, §7, §8, §9
# JAK1(JH2) = JAK1(JH2) (Homo sapiens (Human), UniProt P23458); assay: Pseudo kinase experiment, JAK1 (JH2), tracer/Tb; assay type: binding
# Procedure: as §10, §11, §12, §13, §14, §15, §16, §17, §9
# JAK2 (JH1) = JAK2 (JH1) (Homo sapiens (Human), UniProt O60674); assay: JAK family kinase experiment, JAK2 (JH1); assay type: biochemical
# Procedure: as §1, §2, §3, §4, §5, §6, §7, §8, §9
# pSTAT5 in CD3+ cells = assay: Inhibition of IFN-alpha induced pSTAT5 expression in CD3+ cells (human PBMC), FACS assay; assay type: cell-based; settings: IFN-α 20 ng/ml
# Procedure: Test Example 1: The Inhibitory Effect of Compounds on the Expression of Pstat5 in CD3+ Cells Using FACS Assay
# • DMSO, Sigma, Cat #D2650-100 mL, stored at room temperature. • Perm buffer III, BD Biosciences, Cat #558050, stored at 4° C. • Lyse/Fix buffer, BD Biosciences, Cat #558049, stored at room temperature. • EDTA, Invitrogen, Cat #15575-038, stored at room temperature. • PBS, Hyclone, Cat #SH30256.01, stored at 4° C. • PE Mouse Anti-Human CD3, BD Biosciences, Cat #555333, stored at 4° C. • Mouse anti-human Phospho-STAT5 (pY694) (Alexa Fluor® 647 Conjugate), • BD Biosciences, Cat #562076, stored at 4° C. • IFN-α, Biolegend, Cat #592702.
# • 1) On the day of experiment, the compound was prepared into a 10 mM solution with DMSO, diluted to 1.5 mM in DMSO, and then diluted to 8 gradient concentrations in 3-fold dilutions Concentrations. • 2) 5 μL of the diluted compound was transferred into 120 ul of DPBS solution containing 0.1% BSA. • 3) Positive and negative control groups were set up, and 0.2% DMSO was added to the positive and negative control groups. 2.2 Experimental procedure • 1) 0.5 million and 67.5 ul of human PBMC cells was added to the 96-well cell culture plate per well. • 2) 3.5 ul of diluted compound was added and mixed well. • 3) Incubation was conducted in a 37° C. incubator for 60 minutes. • 4) IFN-alpha was diluted in DPBS containing 0.1% BSA to […], and PE anti-hCD3 antibody was diluted in DPBS containing 0.1% BSA to 3 fold. When the above 60-minute incubation was complete, diluted PE anti-hCD3 antibody was added at 5 ul per well and diluted IFN-α was added at 4 ul per well, i.e., the final concentration of IFN-α per well is 20 ng/ml. • 5) Incubation was conducted in a 37° C. incubator for 30 minutes. • 6) All cells were transferred to a 96-well deep well plate and 1 ml of 37° C. preheated lysis/fix buffer was added. • 7) Incubation was conducted at 37° C. in dark for 10 minutes. • 8) Centrifugation was carried out at 600 g for 5 minutes and then the supernatant was discarded. 1 ml PBS was added to wash for twice and then centrifuged. • 9) 1 ml of Perm buffer III was added to the cell precipitation. • 10) Incubation was conducted at 4° C. in dark for 30 minutes. • 11) Centrifugation was carried out at 600 g for 5 minutes and then the supernatant was discarded. 1 ml PBS was added to wash for twice and then centrifuged. • 12) APC anti-human pSTAT5 antibody was diluted in staining buffer by 200-fold, which was added to cell wells at 100 uL per well and mixed well. • 13) Incubation was conducted at room temperature for 40 minutes. • 14) Staining buffer was added to wash for twice with 1 mL for each well, and centrifugation was carried out at 600 g for 5 minutes. • 15) After discarding the supernatant, the cell precipitation was re-suspended in 300 μL of staining buffer. • 16) Sample loading and analysis were carried out in a flow cytometer. The IC50 of the samples to be tested was obtained from the above, Table 1.
# Sequence of TYK2 (JH1) (P29597 897-1176): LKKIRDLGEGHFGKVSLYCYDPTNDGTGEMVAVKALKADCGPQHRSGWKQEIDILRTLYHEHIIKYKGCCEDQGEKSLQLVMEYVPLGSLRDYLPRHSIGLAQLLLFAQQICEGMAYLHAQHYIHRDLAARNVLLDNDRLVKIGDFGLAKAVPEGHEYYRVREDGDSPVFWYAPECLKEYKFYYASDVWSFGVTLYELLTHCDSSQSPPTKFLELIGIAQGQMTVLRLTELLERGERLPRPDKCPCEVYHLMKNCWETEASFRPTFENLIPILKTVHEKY
# Sequence of JAK3 (JH1) (P52333 822-1111): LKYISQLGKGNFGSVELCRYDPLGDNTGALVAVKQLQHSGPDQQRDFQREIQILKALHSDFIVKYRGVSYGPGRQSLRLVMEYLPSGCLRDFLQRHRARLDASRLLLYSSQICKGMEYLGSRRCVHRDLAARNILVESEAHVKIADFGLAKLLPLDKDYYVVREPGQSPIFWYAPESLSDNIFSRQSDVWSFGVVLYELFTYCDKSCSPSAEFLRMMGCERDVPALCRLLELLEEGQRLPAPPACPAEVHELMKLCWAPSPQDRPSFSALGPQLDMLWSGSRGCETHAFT
# Sequence of JAK2 (JH1) (O60674 849-1124): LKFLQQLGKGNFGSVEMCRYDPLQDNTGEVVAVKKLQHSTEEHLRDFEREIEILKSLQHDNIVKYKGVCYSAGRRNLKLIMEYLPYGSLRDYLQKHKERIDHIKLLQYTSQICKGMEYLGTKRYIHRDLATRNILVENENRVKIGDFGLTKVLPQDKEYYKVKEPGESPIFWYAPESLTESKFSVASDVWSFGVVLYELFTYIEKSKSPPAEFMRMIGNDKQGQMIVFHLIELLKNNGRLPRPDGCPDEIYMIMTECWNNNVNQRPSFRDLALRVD
# Sequence of JAK1(JH2) (P23458 583-855): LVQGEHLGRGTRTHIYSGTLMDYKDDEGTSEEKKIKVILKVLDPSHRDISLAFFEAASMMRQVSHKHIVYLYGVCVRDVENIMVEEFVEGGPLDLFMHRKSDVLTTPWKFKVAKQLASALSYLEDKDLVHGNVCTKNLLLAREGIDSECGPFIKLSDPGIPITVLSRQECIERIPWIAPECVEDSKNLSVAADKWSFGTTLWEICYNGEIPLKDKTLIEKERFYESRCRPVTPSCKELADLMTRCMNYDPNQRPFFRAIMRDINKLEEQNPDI
# Sequence of TYK2(JH2) (P29597 589-875): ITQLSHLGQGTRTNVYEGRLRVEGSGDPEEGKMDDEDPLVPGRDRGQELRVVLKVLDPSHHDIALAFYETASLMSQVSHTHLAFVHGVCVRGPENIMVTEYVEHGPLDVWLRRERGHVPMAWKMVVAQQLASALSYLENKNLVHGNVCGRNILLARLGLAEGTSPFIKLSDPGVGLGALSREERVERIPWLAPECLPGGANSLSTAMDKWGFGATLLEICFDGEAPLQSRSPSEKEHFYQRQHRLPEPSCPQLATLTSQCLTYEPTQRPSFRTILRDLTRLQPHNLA
# Sequence of JAK1 (JH1) (P23458 875-1153): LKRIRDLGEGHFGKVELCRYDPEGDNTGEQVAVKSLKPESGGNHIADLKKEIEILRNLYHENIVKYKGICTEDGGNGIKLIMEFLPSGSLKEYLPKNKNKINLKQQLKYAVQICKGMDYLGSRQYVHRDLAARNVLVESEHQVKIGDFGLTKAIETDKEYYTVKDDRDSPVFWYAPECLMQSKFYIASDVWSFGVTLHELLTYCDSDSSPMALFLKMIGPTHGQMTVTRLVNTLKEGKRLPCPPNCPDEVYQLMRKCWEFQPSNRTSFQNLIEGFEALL
smiles,measurement,setting,value
[2H]C([2H])([2H])Oc1c(-c2cnn(C)n2)ccnc1Nc1cc(NC(=O)[C@H]2CC23CC3)ncc1C(=O)CC [Compound 4S],IC50,JAK3 (JH1),> 9900 nM
same,IC50,TYK2(JH2),0.29 nM
same,IC50,TYK2 (JH1),> 9900 nM
same,concentration at 2 h,"[1]; brain, 10 mg/kg, 10 mg QD oral, read-out: concentration in brain",615 ng/mL
same,concentration at 2 h,"[1]; brain, 30 mg/kg, 30 mg BID oral, read-out: concentration in brain",2360 ng/mL
same,concentration at 2 h,"[1]; brain, 30 mg/kg, 30 mg QD oral, read-out: concentration in brain",2360 ng/mL
same,concentration at 2 h,"[1]; brain, 90 mg/kg, 90 mg QD oral, read-out: concentration in brain",6260 ng/mL
same,Kp at 2 h,"[1]; 10 mg/kg, 10 mg QD oral",0.788
same,Kp at 2 h,"[1]; 30 mg/kg, 30 mg BID oral",0.88
same,Kp at 2 h,"[1]; 30 mg/kg, 30 mg QD oral",1.11
same,Kp at 2 h,"[1]; 90 mg/kg, 90 mg QD oral",1.32
same,concentration at 2 h,"[1]; plasma, 10 mg/kg, 10 mg QD oral, read-out: concentration in plasma",784 ng/mL
same,concentration at 2 h,"[1]; plasma, 30 mg/kg, 30 mg BID oral, read-out: concentration in plasma",2740 ng/mL
same,concentration at 2 h,"[1]; plasma, 30 mg/kg, 30 mg QD oral, read-out: concentration in plasma",2040 ng/mL
same,concentration at 2 h,"[1]; plasma, 90 mg/kg, 90 mg QD oral, read-out: concentration in plasma",4720 ng/mL
same,IC50,JAK1 (JH1),> 9900 nM
same,IC50,JAK1(JH2),22 nM
same,IC50,JAK2 (JH1),5420 nM
same,IC50,pSTAT5 in CD3+ cells,< 50 nM
CCC(=O)c1cnc(NC(=O)[C@@H]2CC23CC3)cc1Nc1cccc(-c2cnn(C)n2)c1OC [Compound 2R],IC50,pSTAT5 in CD3+ cells,> 50 nM
[2H]C([2H])([2H])n1ncc(-c2ccnc(Nc3cc(NC(=O)[C@@H]4CC45CC5)ncc3C(=O)CC)c2OC)n1 [Compound 3R],IC50,pSTAT5 in CD3+ cells,< 50 nM
CCC(=O)c1cnc(NC(=O)[C@H]2CC23CC3)cc1Nc1nc(C)cc(-c2cnn(C)n2)c1OC [Compound 6S],IC50,pSTAT5 in CD3+ cells,< 50 nM
[2H]C([2H])([2H])Oc1c(-c2cnn(C([2H])([2H])[2H])n2)ccnc1Nc1cc(NC(=O)[C@H]2CC23CC3)ncc1C(=O)CC [Compound 5S],IC50,pSTAT5 in CD3+ cells,< 50 nM
[2H]C([2H])([2H])Oc1c(-c2cnn(C([2H])([2H])[2H])n2)ccnc1Nc1cc(NC(=O)[C@@H]2CC23CC3)ncc1C(=O)CC [Compound 5R],IC50,pSTAT5 in CD3+ cells,> 50 nM
[2H]C([2H])([2H])Oc1c(-c2cnn(C)n2)ccnc1Nc1cc(NC(=O)[C@@H]2CC23CC3)ncc1C(=O)CC [Compound 4R],IC50,pSTAT5 in CD3+ cells,> 50 nM
CCC(=O)c1cnc(NC(=O)[C@@H]2CC23CC3)cc1Nc1nc(C)cc(-c2cnn(C)n2)c1OC [Compound 6R],IC50,pSTAT5 in CD3+ cells,< 50 nM
CCC(=O)c1cnc(NC(=O)[C@H]2CC23CC3)cc1Nc1nccc(-c2cnn(C)n2)c1OC [Compound 1S],IC50,pSTAT5 in CD3+ cells,< 50 nM
CCC(=O)c1cnc(NC(=O)[C@H]2CC23CC3)cc1Nc1cccc(-c2cnn(C)n2)c1OC [Compound 2S],IC50,pSTAT5 in CD3+ cells,> 50 nM
CCC(=O)c1cnc(NC(=O)[C@@H]2CC23CC3)cc1Nc1nccc(-c2cnn(C)n2)c1OC [Compound 1R],IC50,pSTAT5 in CD3+ cells,> 50 nM
[2H]C([2H])([2H])n1ncc(-c2ccnc(Nc3cc(NC(=O)[C@H]4CC45CC5)ncc3C(=O)CC)c2OC)n1 [Compound 3S],IC50,pSTAT5 in CD3+ cells,< 50 nM
